Each structure is given as a SMILES string.

The test system of the experiment is herpes simplex. As to the kind of experiment: In vivo potency against herpes simplex infection in intra-cerebrally infected mice (survival times, MRST). The conditions noted are these: for MRST: mean reciprocal survival time; for MRST / Survival Times / survivors: 50 mg/kg twice daily for 4.5 days; for MRST / Survival Times: recorded over 14 days; for Survival Times / survivors: 10 animals; for Survival Times: figures = number of animals that died (on the day in parentheses); for survivors: 14 days, 1 mouse died within 24 hours of infection. Set-up: species or system CD 1 mice. The procedure:
The compounds of Examples 1 and 2 were tested in vivo to determine their potency in vivo against herpes simplex infections. The compounds were tested in comparison with the 6-deoxy analogue of the compound of Example 1, namely 9-(3,4-dihydroxybutyI) guanine (DHBG). The following is description of the testing.
The compounds were tested in CD 1 mice infected with herpes simplex ICI cell culture stock having a titre of 1 x 10^5 plaque forming units (pfu)/ml and administered to the mice in a dose of 0.025ml by the intra-cerebral route.
The test compounds were prepared as aqueous suspensions or solutions, each compound being administered at a dose of 50 mg/kg in a volume of 0.1 ml, by either the oral or sub-cutaneous (s.c.) route, to a treatment group of animals. Each group contained 10 animals for each compound and for each route of administration.
Treatment of the animals commenced 2-3 hours after infection and continued twice daily for 4.5 days.
A group of 13 animals which were infected but untreated served as controls.
Survival times for the test animals were recorded over 14 days and expressed as mean reciprocol survival times (MRST).
The results shown in the following table were obtained in which the figures in the column headed "Survival Times" indicate the number of animals that died on the day indicated in parentheses.

In the case of `Nc1nc2c(ncn2CCC(O)CO)c(=O)[nH]1` (stereo not drawn) [DHBG, 9-(3,4-dihydroxybutyI) guanine, reference compound], where the note is “oral”, the MRST was 0.18 and the “Survival Times” value is on record as 1(4.5), 3(5), 5(6), 1(7). Further, for the setting “s.c.”, the MRST is 0.155 and the “Survival Times” value was 1(5), 3(6), 5(7), 1(7.5).

As for `Nc1ncc2ncn(CCC(O)CO)c2n1` (stereo not drawn) [Example 1, 2-Amino-9-(3,4-dihydroxybutyl)-9H-purine], for the setting “oral”, the MRST was 0.154 and the “Survival Times” value is listed as 1(5), 4(6), 3(7), 1(7.5), 1(9). For the same molecule, where the note is “s.c.”, the MRST was determined as 0.160 and the “Survival Times” value was 7(6), 3(7).

Turning to `Nc1ncc2ncn(COCC(O)CO)c2n1` (stereo not drawn) [Example 2], under “oral”, the MRST is given as 0.059; the survivors is 5; the “Survival Times” value was 1(6), 1(7), 1(8), 1(10.5). Besides, under “s.c.”, the MRST came to 0.054; the survivors is recorded as 5; the “Survival Times” value is on record as 3(8), 1(9). In addition, the “antiviral effect in vivo against HSV” value (summary statement, particularly in comparison with DHBG) was “potent antiviral effect”.

Values taken from patent EP0203736A1, “Antiviral compounds” (THE WELLCOME FOUNDATION LIMITED, priority 1985, dated 1986).
